# Test results as given in patent US20260224678A1, “EXPEDITED NEOANTIGEN VACCINES” (priority 2023, published 2026).
# System: T cells
# Test: Elispot response after vaccination with neoepitope peptides
# Type: cell-based, human
# Details: subject with R132H mutation of IDH1 vaccinated multiple times with two 9 mer peptides and a 15 mer peptide carrying the motifs
# Source text: As noted above, T cell exposed motif frequency is also a criterion for selection of vaccinal peptides from mutated passenger gene products. Table 10—(also replicated as FIG. 5) provides an example for a particular individual cancer-affected subject showing the selection of the most advantageous peptides based on frequency of occurrence in reference databases of pentamer counts and the subject's HLA alleles. When the pentamers in tumor specific T cell exposed motifs that expose a mutated amino acid are absent or low frequency in the human proteome, particular attention is paid to the frequency count in databases of exogenous proteins. In the table we show application of the representative gastrointestinal microbiome dataset. Application of this database should not be considered limiting and other reference sets likely to be indicative of prior epitope exposure may be applied. In this example the top two passenger mutations (in genes ARHGAP5 and ATIC) have T cell exposed motifs which are common. However, the lower two mutations (in CDC42 and CHD6) are poorly represented in the human and gastrointestinal microbiome reference datasets. Selected peptides for these two mutated proteins (margins boxed in FIG. 5) that best fulfil the criteria of frequency and also binding to this subject's known HLA alleles include SEQ ID NO.:s. 1891, 1897, 1898, 1914, 1915, 1916, 1921. In another embodiment a subject affected with a R132H mutation of IDH1 was vaccinated multiple times with two 9 mer peptides both exposing the mutant histidine. One peptide carried T cell exposed motif ~~~IGHHA~ (SEQ ID NO.: 1924) and the other carrying ~~~GHHAY~ SEQ ID NO.: 1925 and a 15 mer peptide comprising KP~I~GH SEQ ID NO.: 1927. A positive Elispot response was detected to SEQ ID NO.: 1924 and 1927 but not SEQ ID NO.: 1925.
# Methods of expansion of T cells and sequencing of the T cell receptors (TCR) therein are known to the art. […]
row,Substance,Elispot
1,1925 (GHHAY) [compound 1925],negative
2,1927 (KPIGH) [compound 1927],positive
3,1924 (IGHHA) [compound 1924],positive
